Measured values taken from paper PMC6163344, “A Novel Cell Penetrating Peptide for the Differentiation of Human Neural Stem Cells” (Biomolecules, 2018).

Key:
ReNcell VM (RVM) cells [1] = conditions: PrestoBlue, N = 3
[2] = system: β-III tubulin expression in ReNcell VM; test: RVM differentiation, quantitative immunocytochemistry for β-III tubulin; assay type: cell-based, human; conditions: 0.1 µM, N = 3
Method: (§1) The laminin solution was removed prior to cell seeding. 2 × 10^4 ReNcell VM between passages 8 and 10 were seeded in the 8-well chamber slides with 400 µL of proliferation media. The cells were grown to 70% confluency. Differentiation for RVM is initiated by growth factor withdrawal or in combination with RA or RA-PepB3. The media were replaced every 48–72 h for the duration of the differentiation. Compound treatment was only performed for one week, at which point all cells were commonly grown in growth factor withdrawal media.
(§2) Cells were fixed with 4% PFA at room temperature for 15 min. After rinsing with PBS, blocking and permeabilization were done simultaneously using 5% donkey serum and 0.3% Triton-X 100 in PBS for 30 min at room temperature. The cells were rinsed with PBS and primary antibodies were applied for 2 h at room temperature. The cells were rinsed again with PBS and secondary antibodies were applied for 1 h at room temperature. […] The cells positive for β-III tubulin and MAP2 were counted using ImageJ. […] The fluorescence channels were separated, background removed, and contrast enhanced. The number of DAPI positive cells were counted using an in-house coded nuclei counter. […] The channels were then re-merged and the cells positive for β-III tubulin and MAP2 were manually counted. […]

[3] = set-up: method as in PMID 1898007; conditions: reported solubility limit in water; cited from earlier work
Text: Neurogenesis is an important biological process under intense investigation. Neurodegenerative diseases such as Alzheimer’s and Parkinson’s are devastating due to the fact that neurons cannot be replaced in the diseased areas of the brain [1]. […] To exert its effects ... || Retinoic acid is a potent morphogen used to differentiate stem cells towards the neural lineage.

ReNcell VM (RVM) cells [4] = test: 24 h cytotoxicity, CCK-8 (WST-8) or PrestoBlue; assay type: cell-based, human; conditions: 24 h treatment
Method: Sterile peptide solutions for cytotoxicity testing were prepared from stock by diluting with deionized (DI) water and filtering through a 0.22 µm polytetrafluoroethylene (PTFE) membrane. Because of aggregations and decreased solubility in water at high concentrations, a standard curve was used to determine the concentrations of the filtered peptides. Briefly, 5 µL of sample or serial diluted peptide stocks with known concentrations prepared from weighed powder, were aliquoted into wells of a 96-well half area plate. Then, 45 µL of methanol was added to each well to fully solubilize all the peptides. Absorbance measurements at 554 nm (650 nm as reference) were taken on a Tecan infinite M200 Pro plate reader (Tecan Group, Männedorf, Switzerland). After the calculation of stock concentrations, peptides were further diluted with cell culture media for treatment.
There were 10,000 ReNcell VM cells (passages below 15) that were seeded in each well, with 100 µL of RVM cell culture media supplemented with the growth factors bFGF and EGF.
For the PepB series (Figure 1 and Table 1) testing, the RVM cells were incubated with peptides for 24 h. […] After incubation for 1 h, for WST-8, a Tecan infinite M200 Pro plate reader was utilized to acquire absorbance measurements at 450 nm (650 nm as reference) and normalized to the untreated controls.

[5] = system: MAP2 expression in ReNcell VM; test: RVM differentiation, quantitative immunocytochemistry for MAP2; assay type: cell-based, human; conditions: 0.1 µM, compound treatment for the initial one week, four weeks of differentiation, N = 3
Method: as §1, §2

[6] = system: undifferentiated RVM cells cultured in Matrigel; conditions: microarray chip, read-out: viability IC50; cited from earlier work

CC1=C(/C=C/C(C)=C/C=C/C(C)=C/C(=O)O)C(C)(C)CCC1 [RA, All-Trans-Retinoic Acid]
proliferation versus controls after 24 h (ReNcell VM (RVM) cells [1]; 5 and 10 µM RA): significantly less proliferation than the controls | proliferation versus controls by day three (ReNcell VM (RVM) cells [1]; all tested concentrations of RA, medium refreshed every 48 h): significantly reduced rates of proliferation | β-III tubulin expression, fold versus growth factor withdrawal control ([2]; compound treatment for the initial one week, four weeks of differentiation): 2 fold | β-III tubulin expression, fold versus no growth factor control ([2]; one week of differentiation): 1.5 fold | solubility in aqueous environments [3]: < 0.2 µM | fraction of RVM cells killed (ReNcell VM (RVM) cells [4]; 10 µM, PrestoBlue or Cell Counting Kit-8, N = 3): more than 50% | concentration at which RVM cells started significantly dying (ReNcell VM (RVM) cells [4]; 0–10 µM tested, N = 3): 5 µM | MAP2 expression, fold versus control [5]: 2.5 fold | IC50 [6]: 740 nM
